Here are results for two compounds from publication PMC6968383, “Design, synthesis, in vitro and in vivo evaluation of benzylpiperidine-linked 1,3-dimethylbenzimidazolinones as cholinesterase inhibitors against Alzheimer’s disease” (Journal of Enzyme Inhibition and Medicinal Chemistry, 2019).

The target of series [1] is T1, BChE (EC 3.1.1.8) from human (Homo sapiens, UniProt P06276).
T1 construct: purchased Sigma-Aldrich
As to the kind of experiment: human BChE inhibition assay, Ellman's method. Format: biochemical. The following applies: mean ± SEM, read-out: huBChE IC50. Here is the method:
; The inhibitory activities of the target compounds towards AChE (from Electrophorus electricus (electric eeAChE, Sigma-Aldrich) and horse serum BChE (eqBChE, Sigma-Aldrich) or human AChE – huAChE; human BuChE – huBuChE (huAChE, huBuChE, Sigma-Aldrich) were measured by Ellman’s method. In 96-well plates, a mixture of phosphate buffer (0.1 M, pH 8.0, […]), 5,5′-dithiobis-2-nitrobenzoic acid (DTNB, 60 µL), acetylcholinestrase or butyrylcholinesterase (20 µL, 5 IU/mL) and different concentration of the compound solution (30 µL) was pre-incubated for 5 min followed by the addition of the substrate (acetylthiocholine iodide or butyrylthiocholine iodide, 20 µL). Changes in absorbance were measured at 412 nm by using microplate reader (Thermo, Varioskan Flash 3001, USA). The measurement of each concentration for each compound was detected in triplicate. GraphPad Prism 6.0 (GraphPad Software, Inc., La Jolla, CA) was used for data processing. The inhibition curve was fitted by plotting percentage enzyme activity (100% for the reference) versus the logarithm of the concentration of tested compound. The half-maximal inhibitory concentration (IC50) values were calculated according to the inhibition curve and the data were shown in the layout of mean ± SEM by GraphPad Prism 6.0.
In general terms: DTNB colorimetry detects thiols as they appear.

Series [2] in a line: DPPH radical scavenging activity. The following applies: at 1 mM. The procedure:
Compounds 15b and 15j were selected to be evaluated for their 1,1-diphenyl-2-picrylhydrazyl radical scavenging activity (DPPH) compared with trolox as reference compound[12].
Corresponding Authors: clarissa0710@163.com (Y. Chen); sunhaopeng@163.com (H. P.
1.1. Inhibition of self-induced Aβ1–42 aggregation
Inhibitory effect of the compounds on self -induced Aβ1–42 aggregation was determined through a thioflavin T (ThT)-(T3516, Sigma-Aldrich) binding assay.
Firstly, aliquots of 2 μL of Aβ 1–42 (AS-64129–05 Anaspec Inc.) containing 2 mg/mL HFIP (1,1,1,3,3,3-hexafluoro-2-propanol, 52517 (Sigma-Aldrich) were stocked in DMSO).
Then, they were diluted with 0.215M sodium phosphate buffer (pH 8.0) to the final concentration of 500 μM. Test compounds were dissolved in DMSO and then prepared at a concentration of 50 μM by the buffer. Resveratrol was used as a positive control. […]
Fluorescence intensity was read (excitation wavelength 450 nm, emission wavelength 485 nm) on a microplate reader (Thermo, Varioskan Flas h 3001, USA).
The calculation of the inhibitory rate of Aβ 1–42 self-induced aggregation was performed using the following equation: (1 -IFi/IFc) × 100 %. IFi and IFc were the fluorescence intensities measured in the presence and absence of inhibitors, respe ctively, after subtracting the background fluorescence of the 5mM ThT solution. Each compound was measured in triplicate. […]

Another series deals with liver. In words: Liver histopathological study (HE staining). The following applies: 36 h after administration, compared to control group. The text has this: Figure 7. […] HE staining, original magnification ×200.
For the next series, the system named is PC12 cells. In words: Neuroprotection against H2O2-induced cell death in PC12 cells. Format: cell-based. The following applies: PC12 cells pre-treated 24 h, 800 µM H2O2. Here is the method: We evaluated the cytoprotective effects of 15b and 15j on H2O2-induced cell damage. Treatment with 800 µM H2O2 for 24 h caused over 55% death rate of PC12 cells compared with the control group (Supplementary Figure S2(A)).
Figure S1. (A) The inhibitory effect of 15b and 15j on i Aβ1-42 self-aggregation. (B) […]
1.3. Neuroprotection assay against H2O2-induced cell death in PC12 cells Cytotoxicity was determined by using 3-(4,5-dimethylthiazol-2-yl)-2,5-diphenyltetrazoliumbromide (MTT) assay. The PC-12 cell line was purchased from Cell Bank of the Chinese Academy of Sciences (Shanghai, China). MTT was purchased from Sigma (M2128, St. Louis, MO). It was dissolved in phosphate buffered saline (PBS) to a stock concentration of 5 mg mL-1 and stored at - 20 °C. PC-12 cells were plated in 96-well plates, raised to a population of 1 × 10^4 cells per well, and incubated overnight. […]
Then the solution was removed and 150.0 μL of DMSO was added into each well to dissolve the MTT formazan crystals. […] The absorbance values (OD value) were read at 570 nm by microplate reader (Thermo, Varioskan Flash 3001, USA). The inhibitory rate for each concentration of the test compound was calculated by the equation as follows: […]
Here, ODtest, ODblank, and ODcontrol stand for the OD value from test compound, background, and DMSO, respectively. The IC50 values were calculated by GraphPad […]

The next series has as its target T2, eqBChE (Equus caballus, UniProt P81908).
T2 construct: horse serum BChE (eqBChE, Sigma-Aldrich); purchased Sigma-Aldrich; host or cells: horse serum
As to the kind of experiment: Kinetic study of BChE inhibition (Lineweaver–Burk). The series is classed as biochemical. The following applies: Lineweaver–Burk plot, 0, 0.5, 1, 2, 5 µM. Here is the method:
In each case, the kinetic type of enzyme inhibition was obtained through the modified Ellman’s method and Lineweaver–Burk secondary plots.
Figure 2. […] (B) Lineweaver–Burk plot for the inhibition of eqBChE by compound 15j at different concentrations of substrate.
[…]. The enzymatic reaction was extended to 7 min for eeAChE and eqBuChE before the determination of the absorption. Vmax and Km values of the Michaelis–Menten kinetics were calculated by nonlinear regression from substrate-velocity curves using GraphPad Prism 6.0. Linear regression was used for fitting the Lineweaver–Burk plots.

T1 sequence (P06276 29-602): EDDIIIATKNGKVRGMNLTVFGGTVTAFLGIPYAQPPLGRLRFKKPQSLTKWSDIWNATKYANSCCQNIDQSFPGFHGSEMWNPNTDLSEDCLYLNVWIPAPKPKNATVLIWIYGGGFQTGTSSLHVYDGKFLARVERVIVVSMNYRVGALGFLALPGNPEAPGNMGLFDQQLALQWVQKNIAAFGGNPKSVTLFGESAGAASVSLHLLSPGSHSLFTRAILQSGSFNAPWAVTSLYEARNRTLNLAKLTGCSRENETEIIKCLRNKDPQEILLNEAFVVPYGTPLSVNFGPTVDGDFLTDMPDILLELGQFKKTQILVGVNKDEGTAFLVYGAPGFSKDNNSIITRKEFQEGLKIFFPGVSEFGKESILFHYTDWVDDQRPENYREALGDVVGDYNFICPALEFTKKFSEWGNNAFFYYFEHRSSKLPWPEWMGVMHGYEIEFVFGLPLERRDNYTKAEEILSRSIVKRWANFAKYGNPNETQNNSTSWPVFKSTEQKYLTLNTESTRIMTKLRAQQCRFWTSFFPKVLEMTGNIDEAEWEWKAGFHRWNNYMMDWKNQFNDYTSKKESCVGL
T2 sequence (P81908 whole entry): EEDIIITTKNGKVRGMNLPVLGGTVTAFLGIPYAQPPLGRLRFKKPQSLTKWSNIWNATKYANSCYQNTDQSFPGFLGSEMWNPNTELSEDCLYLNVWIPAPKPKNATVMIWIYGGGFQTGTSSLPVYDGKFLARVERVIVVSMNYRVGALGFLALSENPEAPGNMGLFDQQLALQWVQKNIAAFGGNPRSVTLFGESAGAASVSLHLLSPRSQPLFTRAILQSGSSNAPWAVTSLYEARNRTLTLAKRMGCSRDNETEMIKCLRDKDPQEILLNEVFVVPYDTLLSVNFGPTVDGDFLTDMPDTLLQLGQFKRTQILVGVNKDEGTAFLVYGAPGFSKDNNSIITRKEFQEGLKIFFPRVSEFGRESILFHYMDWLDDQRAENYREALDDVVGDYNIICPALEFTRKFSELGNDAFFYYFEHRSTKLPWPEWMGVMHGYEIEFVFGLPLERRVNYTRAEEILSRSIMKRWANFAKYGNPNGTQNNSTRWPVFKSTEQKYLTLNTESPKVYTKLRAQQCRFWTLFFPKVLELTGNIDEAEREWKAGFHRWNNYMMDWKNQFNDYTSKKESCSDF

By IC50 is commonly meant the concentration that inhibits the measured activity by half. On to `Cc1ccccc1CN1CCC(CNS(=O)(=O)c2ccc3c(c2)n(C)c(=O)n3C)CC1` [Compound 15b, 1,3-dimethyl-N-((1–(2-methylbenzyl)piperidin-4-yl)methyl)-2-oxo-2,3-dihydro-1H-benzo[d]imidazole-5-sulphonamide], for which the half-maximal inhibitory concentration (IC50) in series [1] stood at 1330 ± 550 nM. For the same compound, the DPPH inhibitory rate in series [2] is listed as 12.2%. Also, the “morphologic changes in liver” value with liver is “did not result in remarkable morphologic changes in liver”. Also, the “cytoprotective effect on H2O2-induced cell damage” value with PC12 cells is listed as “the mortality rate of PC12 cells caused by H2O2 was reduced”.
Turning to `Cn1c(=O)n(C)c2cc(S(=O)(=O)NCC3CCN(Cc4cccc(Br)c4)CC3)ccc21` [Compound 15j, N-((1–(3-bromobenzyl)piperidin-4-yl)methyl)-1,3-dimethyl-2-oxo-2,3-dihydro-1H-benzo[d]imidazole-5-sulphonamide], the IC50 in series [1] came out at 660 ± 220 nM. Also, the DPPH inhibitory rate in series [2] turned out to be 6.3%. In the series with liver, the “morphologic changes in liver” value is “did not result in remarkable morphologic changes in liver”. Further, the “kinetic type of BChE inhibition” value at eqBChE is recorded as “competitive”. In addition, the “cytoprotective effect on H2O2-induced cell damage” value with PC12 cells is “the mortality rate of PC12 cells caused by H2O2 was reduced”.
